Measurements reported in patent US8039493B2, “Biaryl sulfonamide derivatives” (Hoffmann-La Roche Inc., priority 2008, dated 2011).

Experiments:
[1] = target: T1, human LXR alpha (Homo sapiens, UniProt Q13133); assay: Radioligand binding assay (scintillation proximity), LXRα-LBD; conditions: LXRα-LBD on SPA beads, read-out: LXRalpha Binding IC50
T1 construct: human LXR alpha (aa 164 to 447); made in house; host or cells: E. coli BL21 (pLysS)
T1 sequence (Q13133 164-447): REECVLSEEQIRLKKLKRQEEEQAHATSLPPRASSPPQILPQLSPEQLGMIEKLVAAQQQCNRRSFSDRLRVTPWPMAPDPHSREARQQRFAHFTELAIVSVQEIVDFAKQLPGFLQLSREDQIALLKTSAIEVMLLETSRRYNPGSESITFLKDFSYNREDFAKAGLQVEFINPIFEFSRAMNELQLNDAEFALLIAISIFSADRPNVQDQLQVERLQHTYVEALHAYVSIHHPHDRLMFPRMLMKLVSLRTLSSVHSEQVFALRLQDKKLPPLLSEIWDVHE
Description: (§1) The following tests were carried out in order to determine the activity of the compounds of the present invention. […] Mammalian expression vectors were constructed to express full-length human LXR alpha and LXR beta. […] To accomplish this, the portions of the sequences encoding the LBDs were amplified from the full-length clones by PCR and then subcloned into the plasmid vectors.
(§2) Induction, expression, and purification of LBD proteins were performed in E. coli strain BL21 (pLysS) cells by standard methods (Ref: Current Protocols in Molecular Biology, Wiley Press, edited by Ausubel et al).
(§3) Radioligand Binding Assay
(§4) LXR alpha and LXR beta receptor binding were assayed in buffer consisting of 50 mM HEPES, pH 7.4, 10 mM NaCl, 5 mM MgCl2. For each 96-well reaction, 500 ng of LXRα-LBD or 700 ng of LXR beta-LBD proteins were bound to 80 μg or 40 μg SPA beads respectively, in a final volume of 50 μl by shaking. The resulting slurry was incubated for 1 h at RT and centrifuged for 2 min at 1300×g. The supernatant containing unbound protein was removed, and the semi-dry pellet containing the receptor-coated beads was re-suspended in 50 μl of buffer. Radioligand (eg. 100,000 dpm of (N-(2,2,2-trifluoroethyl)-N-[4-(2,2,2-trifluoro-1-hydroxy-1-trifluoromethylethyl)-phenyl]-benzenesulfonamide)) was added, and the reaction incubated at RT for 1 h in the presence of test compounds, and then scintillation proximity counting was performed. All binding assays were performed in 96-well plates and the amount of bound ligand was measured on a Packard TopCount using OptiPlates (Packard). Dose response curves were measured within a range of concentration from 10^−10 M to 10^−4 M.

[2] = target: T2, human LXR beta (Homo sapiens, UniProt P55055); assay: Radioligand binding assay (scintillation proximity), LXR beta-LBD; conditions: LXR beta-LBD on SPA beads, read-out: LXRbeta Binding IC50
T2 construct: human LXR beta (aa 155 to 460); made in house; host or cells: E. coli BL21 (pLysS)
T2 sequence (P55055 155-460): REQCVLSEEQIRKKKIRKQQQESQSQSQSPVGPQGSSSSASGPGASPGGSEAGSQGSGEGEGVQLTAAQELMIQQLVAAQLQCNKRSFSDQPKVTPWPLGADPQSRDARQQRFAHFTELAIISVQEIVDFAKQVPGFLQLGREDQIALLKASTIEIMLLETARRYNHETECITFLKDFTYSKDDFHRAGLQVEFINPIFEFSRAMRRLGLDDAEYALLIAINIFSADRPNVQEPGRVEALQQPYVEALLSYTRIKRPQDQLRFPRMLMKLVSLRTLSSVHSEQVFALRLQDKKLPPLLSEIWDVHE
Description: as §1, §2, §3, §4

| IC50 [1] [nM] | IC50 [2] [nM] | Compound |
| --- | --- | --- |
| 2800 | 255 | CC(C)S(=O)(=O)N(Cc1ccc(F)cc1)Cc1cccc(-c2cccc(S(C)(=O)=O)c2)c1 [Example 53, Propane-2-sulfonic acid (4-fluoro-benzyl)-(3′-methanesulfonyl-biphenyl-3-ylmethyl)-amide] |
| 84.5 | 7.4 | CC(C)CN(Cc1cc(-c2cccc(S(N)(=O)=O)c2)cs1)S(=O)(=O)c1ccccc1Cl [Example 54, 2-Chloro-N-isobutyl-N-[4-(3-aminosulfonyl-phenyl)-thiophen-2-ylmethyl]-benzenesulfonamide] |
| 2530 | 83 | CC(C)CN(Cc1cc(-c2cncc(S(C)(=O)=O)c2)cs1)S(=O)(=O)c1ccccc1Cl [Example 55, 2-Chloro-N-isobutyl-N-[4-(5-methanesulfonyl-pyridin-3-yl)-thiophen-2-ylmethyl]-benzenesulfonamide] |
| 17700 | 39100 | CC(C)CN(Cc1cc(-c2cccc(S(=O)(=O)NC(C)(C)C)c2)cs1)S(=O)(=O)c1ccccc1Cl [Example 56, 2-Chloro-N-isobutyl-N-[4-(3-tert-butylaminosulfonyl-phenyl)-thiophen-2-ylmethyl]-benzenesulfonamide] |
| 31700 | 1340 | CC(C)CN(Cc1ccc(-c2cccc(S(C)(=O)=O)c2)s1)S(=O)(=O)CC1CCCCC1 [Example 58, C-Cyclohexyl-N-isobutyl-N-[5-(3-methanesulfonyl-phenyl)-thiophen-2-ylmethyl]-methanesulfonamide] |
